System: MV-4-11 cells
Assay: Gene expression microarray analysis (Affymetrix PrimeView) and GSEA
Format: cell-based, human
Design: RFU PODN (11730768_x_at) / Fold change /veh PODN (11730768_x_at) / RFU LINC00158 (11744669_a_at) / Fold change /veh LINC00158 (11744669_a_at) / RFU DUSP10 (11751237_a_at) / Fold change /veh DUSP10 (11751237_a_at) / RFU ID3 (11757404_x_at) / Fold change /veh ID3 (11757404_x_at) / RFU PLEKHG5 (11737974_s_at) / Fold change /veh PLEKHG5 (11737974_s_at) / RFU LRRC4B (11730491_at) / Fold change /veh LRRC4B (11730491_at) / RFU GIMAP4 (11747438_a_at) / Fold change /veh GIMAP4 (11747438_a_at) / RFU KRT8 (11758183_x_at) / Fold change /veh KRT8 (11758183_x_at) / RFU CNN1 (11734310_a_at) / Fold change /veh CNN1 (11734310_a_at) / RFU VPS37D (11726825_at) / Fold change /veh VPS37D (11726825_at) / RFU C10orf10 (11716522_x_at) / Fold change /veh C10orf10 (11716522_x_at) / RFU KIR2DL2 /// KIR2DL4 /// KIR2DL5A /// KIR2DL5B /// KIR2DS1 /// KIR2DS2 /// KIR2DS3 /// KIR2DS4 /// KIR3DL3 /// KIR3DL3 /// KIR3DS1 (11738374_at) / Fold change /veh KIR2DL2 /// KIR2DL4 /// KIR2DL5A /// KIR2DL5B /// KIR2DS1 /// KIR2DS2 /// KIR2DS3 /// KIR2DS4 /// KIR3DL3 /// KIR3DL3 /// KIR3DS1 (11738374_at) / RFU C1QL1 (11718748_at) / Fold change /veh C1QL1 (11718748_at) / RFU TMPRSS4 (11747572_a_at) / Fold change /veh TMPRSS4 (11747572_a_at) / RFU HAMP (11756126_x_at) / Fold change /veh HAMP (11756126_x_at) / RFU RNFT2 (11725882_a_at) / Fold change /veh RNFT2 (11725882_a_at) / RFU NR4A2 (11747474_a_at) / Fold change /veh NR4A2 (11747474_a_at) / RFU ABCC12 (11746883_a_at) / Fold change /veh ABCC12 (11746883_a_at) / RFU TMEM136 (11760407_x_at) / Fold change /veh TMEM136 (11760407_x_at) / RFU CLDN22 /// WWC2 (11732394_at) / Fold change /veh CLDN22 /// WWC2 (11732394_at) / RFU HLA-DPB1 (11760878_x_at) / Fold change /veh HLA-DPB1 (11760878_x_at) / RFU SPINT1 (11716480_a_at) / Fold change /veh SPINT1 (11716480_a_at) / RFU GAP43 (11754022_s_at) / Fold change /veh GAP43 (11754022_s_at) / RFU A4GNT (11735810_at) / Fold change /veh A4GNT (11735810_at) / RFU PRB3 (11715151_x_at) / Fold change /veh PRB3 (11715151_x_at) / RFU TUBB4B (11761932_at) / Fold change /veh TUBB4B (11761932_at) / RFU CAPN14 (11732068_a_at) / Fold change /veh CAPN14 (11732068_a_at) / RFU TMCC2 (11721928_a_at) / Fold change /veh TMCC2 (11721928_a_at) / RFU IRGQ (11745062_a_at) / Fold change /veh IRGQ (11745062_a_at) / RFU FAM174B (11720279_a_at) / Fold change /veh FAM174B (11720279_a_at) / RFU TMPRSS4 (11748680_a_at) / Fold change /veh TMPRSS4 (11748680_a_at) / RFU FAM212B (11763350_a_at) / Fold change /veh FAM212B (11763350_a_at) / RFU PLEKHG5 (11743358_a_at) / Fold change /veh PLEKHG5 (11743358_a_at) / RFU ZSCAN30 (11745921_a_at) / Fold change /veh ZSCAN30 (11745921_a_at) / RFU CMKLR1 (11741424_a_at) / Fold change /veh CMKLR1 (11741424_a_at) / RFU LOC101060620 /// MAPK8IP1 (11723275_at) / Fold change /veh LOC101060620 /// MAPK8IP1 (11723275_at) / RFU SPTSSB (11747773_x_at) / Fold change /veh SPTSSB (11747773_x_at) / RFU PRSS12 (11739890_at) / Fold change /veh PRSS12 (11739890_at) / RFU BIN1 (11741810_x_at) / Fold change /veh BIN1 (11741810_x_at) / RFU WNT11 (11732464_a_at) / Fold change /veh WNT11 (11732464_a_at) / RFU C10orf10 (11716521_a_at) / Fold change /veh C10orf10 (11716521_a_at) / RFU C5orf56 (11738089_at) / Fold change /veh C5orf56 (11738089_at) / RFU CYB561 (11721691_x_at) / Fold change /veh CYB561 (11721691_x_at) / RFU ANKRD19P (11752326_a_at) / Fold change /veh ANKRD19P (11752326_a_at) / RFU OR2T12 /// OR2T33 /// OR2T8 (11738714_s_at) / Fold change /veh OR2T12 /// OR2T33 /// OR2T8 (11738714_s_at) / RFU VCAN (11748164_a_at) / Fold change /veh VCAN (11748164_a_at) / RFU JSRP1 (11732532_at) / Fold change /veh JSRP1 (11732532_at) / RFU KRTAP10-11 (11738290_x_at) / Fold change /veh KRTAP10-11 (11738290_x_at) / RFU MYO3A (11730013_a_at) / Fold change /veh MYO3A (11730013_a_at) / RFU EBF3 (11725865_a_at) / Fold change /veh EBF3 (11725865_a_at) / RFU CAMK2N1 (11719241_x_at) / Fold change /veh CAMK2N1 (11719241_x_at) / RFU C5orf56 (11738088_a_at) / Fold change /veh C5orf56 (11738088_a_at) / RFU OLFML3 (11715873_a_at) / Fold change /veh OLFML3 (11715873_a_at) / RFU LOC100653217 /// NTM (11731650_a_at) / Fold change /veh LOC100653217 /// NTM (11731650_a_at) / RFU MAPK11 (11762145_a_at) / Fold change /veh MAPK11 (11762145_a_at) / RFU FIZ1 (11724087_x_at) / Fold change /veh FIZ1 (11724087_x_at) / RFU OASL (11726364_x_at) / Fold change /veh OASL (11726364_x_at) / RFU SOX15 (11748057_x_at) / Fold change /veh SOX15 (11748057_x_at) / RFU CD79A (11719716_a_at) / Fold change /veh CD79A (11719716_a_at) / RFU HIST1H1D (11736915_at) / Fold change /veh HIST1H1D (11736915_at) / RFU CASKIN2 (11723855_a_at) / Fold change /veh CASKIN2 (11723855_a_at) / RFU LOC730098 (11760151_x_at) / Fold change /veh LOC730098 (11760151_x_at) / RFU OR4N2 (11742367_at) / Fold change /veh OR4N2 (11742367_at) / RFU PRRT2 (11749266_a_at) / Fold change /veh PRRT2 (11749266_a_at) / RFU SNX32 (11753110_a_at) / Fold change /veh SNX32 (11753110_a_at) / RFU CDHR5 (11726645_a_at) / Fold change /veh CDHR5 (11726645_a_at) / RFU RCAN1 (11760418_a_at) / Fold change /veh RCAN1 (11760418_a_at) / RFU FAM167A (11723789_a_at) / Fold change /veh FAM167A (11723789_a_at) / RFU FAM26E (11764081_at) / Fold change /veh FAM26E (11764081_at) / RFU ISYNA1 (11749810_s_at) / Fold change /veh ISYNA1 (11749810_s_at) / RFU ACY1 (11761880_at) / Fold change /veh ACY1 (11761880_at) / RFU 11764098_at / Fold change /veh 11764098_at / RFU SAMD14 (11745864_x_at) / Fold change /veh SAMD14 (11745864_x_at) / RFU NPB (11741838_a_at) / Fold change /veh NPB (11741838_a_at) / RFU TMPRSS6 (11731388_a_at) / Fold change /veh TMPRSS6 (11731388_a_at) / RFU KRTAP10-2 (11738614_at) / Fold change /veh KRTAP10-2 (11738614_at) / RFU ARHGAP8 /// PRR5-ARHGAP8 (11727945_x_at) / Fold change /veh ARHGAP8 /// PRR5-ARHGAP8 (11727945_x_at) / RFU KRTAP5-7 /// NADSYN1 (11734609_at) / Fold change /veh KRTAP5-7 /// NADSYN1 (11734609_at) / RFU RASL12 (11751679_a_at) / Fold change /veh RASL12 (11751679_a_at) / RFU CDKN2B (11736163_a_at) / Fold change /veh CDKN2B (11736163_a_at) / RFU PRF1 (11729649_at) / Fold change /veh PRF1 (11729649_at) / RFU, ZNF638 /// ZNF638-IT1 / Fold change vs veh, ZNF638 /// ZNF638-IT1 / RFU, PANK3 / Fold change vs veh, PANK3 / RFU, SH3YL1 / Fold change vs veh, SH3YL1 / RFU, ZEB2 / Fold change vs veh, ZEB2 / RFU, NRIP1 / Fold change vs veh, NRIP1 / RFU, PTTG1IP / Fold change vs veh, PTTG1IP / RFU, CAPN2 / Fold change vs veh, CAPN2 / RFU, MED14 / Fold change vs veh, MED14 / RFU, SNORA58 / Fold change vs veh, SNORA58 / RFU, C1orf63 / Fold change vs veh, C1orf63 / RFU, LRRFIP1 / Fold change vs veh, LRRFIP1 / RFU, NDUFAF7 / Fold change vs veh, NDUFAF7 / RFU, SLC12A2 / Fold change vs veh, SLC12A2 / RFU, IBTK / Fold change vs veh, IBTK / RFU, ESF1 / Fold change vs veh, ESF1 / Fold change vs veh, TMEM50B / RFU, TAOK1 / Fold change vs veh, TAOK1 / RFU, ACBD3 / Fold change vs veh, ACBD3 / RFU, TMA16 / Fold change vs veh, TMA16 / RFU, RWDD3 / Fold change vs veh, RWDD3 / RFU, BCAT1 / Fold change vs veh, BCAT1 / RFU, EDEM3 / Fold change vs veh, EDEM3 / RFU, TMEM33 / Fold change vs veh, TMEM33 / RFU, WDR75 / Fold change vs veh, WDR75 / RFU, AHCTF1 / Fold change vs veh, AHCTF1 / RFU, TFRC / Fold change vs veh, TFRC / RFU, ZDHHC17 / Fold change vs veh, ZDHHC17 / RFU, NOM1 / Fold change vs veh, NOM1 / RFU, ARL8B / Fold change vs veh, ARL8B / RFU, ZBTB11 / Fold change vs veh, ZBTB11 / RFU, TAMM41 / Fold change vs veh, TAMM41 / RFU, KIAA1704 /// LOC100996395 / Fold change vs veh, KIAA1704 /// LOC100996395 / RFU, ING1 / Fold change vs veh, ING1 / RFU, TRMT61B / Fold change vs veh, TRMT61B / RFU, FUBP3 / Fold change vs veh, FUBP3 / RFU, TP53 / Fold change vs veh, TP53 / RFU, TNKS2 / Fold change vs veh, TNKS2 / RFU, ZFP14 / Fold change vs veh, ZFP14 / RFU, ACTR2 / Fold change vs veh, ACTR2 / RFU, PPP3R1 / Fold change vs veh, PPP3R1 / RFU, PIK3R1 / Fold change vs veh, PIK3R1 / RFU, HNRNPA1 / Fold change vs veh, HNRNPA1 / RFU, RNF170 / Fold change vs veh, RNF170 / RFU, ZNF28 / Fold change vs veh, ZNF28 / RFU, RNGTT / Fold change vs veh, RNGTT / RFU, OGT / Fold change vs veh, OGT / RFU, BRD1 / Fold change vs veh, BRD1 / RFU, MARS / Fold change vs veh, MARS / RFU, ZNF655 / Fold change vs veh, ZNF655 / RFU, FAHD1 / Fold change vs veh, FAHD1 / RFU, BDP1 / Fold change vs veh, BDP1 / RFU, LRRCC1 / Fold change vs veh, LRRCC1 / RFU, ARID1A / Fold change vs veh, ARID1A / RFU, ZNF146 / Fold change vs veh, ZNF146 / RFU, ZNF330 / Fold change vs veh, ZNF330 / RFU, GPN3 / Fold change vs veh, GPN3 / RFU, C9orf123 / Fold change vs veh, C9orf123 / RFU, N4BP2L2 / Fold change vs veh, N4BP2L2 / RFU, ARFIP1 / Fold change vs veh, ARFIP1 / RFU, FAM179B / Fold change vs veh, FAM179B / RFU, BCL10 / Fold change vs veh, BCL10 / RFU, UHRF1BP1L / Fold change vs veh, UHRF1BP1L / RFU, BET1 / Fold change vs veh, BET1 / RFU, CNOT2 / Fold change vs veh, CNOT2 / RFU, ZNF268 / Fold change vs veh, ZNF268 / Fold change vs veh, ZNF507 / RFU, DGCR2 / Fold change vs veh, DGCR2 / RFU, WDSUB1 / Fold change vs veh, WDSUB1 / Fold change vs veh, HSP90B1 /// MIR3652 / RFU, ADSS / Fold change vs veh, ADSS / RFU, GK / Fold change vs veh, GK / RFU, ZNF148 / Fold change vs veh, ZNF148 / RFU, TAF9 / Fold change vs veh, TAF9 / RFU, SLC1A5 / Fold change vs veh, SLC1A5 / RFU, SLMO2 / Fold change vs veh, SLMO2 / RFU, ABCC4 / Fold change vs veh, ABCC4 / RFU, LOC101060439 /// RAP1B / Fold change vs veh, LOC101060439 /// RAP1B / RFU, RFX7 / Fold change vs veh, RFX7 / RFU, GTPBP10 / Fold change vs veh, GTPBP10 / RFU, CNEP1R1 / Fold change vs veh, CNEP1R1 / RFU, BIVM-ERCC5 /// ERCC5 / Fold change vs veh, BIVM-ERCC5 /// ERCC5 / RFU, ILF3 / Fold change vs veh, ILF3 / RFU 11762660_at / Fold change /veh 11762660_at / RFU VCAN (11757783_s_at) / Fold change /veh VCAN (11757783_s_at) / RFU DDX43 (11728927_at) / Fold change /veh DDX43 (11728927_at) / RFU KRT8 (11758188_x_at) / Fold change /veh KRT8 (11758188_x_at) / RFU NKD1 (11759106_at) / Fold change /veh NKD1 (11759106_at) / RFU SRD5A1 (11742802_a_at) / Fold change /veh SRD5A1 (11742802_a_at) / RFU TPSAB1 /// TPSB2 (11721975_s_at) / Fold change /veh TPSAB1 /// TPSB2 (11721975_s_at) / RFU GSTM3 (11746129_a_at) / Fold change /veh GSTM3 (11746129_a_at) / RFU IL23R (11737362_x_at) / Fold change /veh IL23R (11737362_x_at) / RFU TMEM51 (11727254_a_at) / Fold change /veh TMEM51 (11727254_a_at) / RFU PIWIL2 (11732686_x_at) / Fold change /veh PIWIL2 (11732686_x_at) / RFU ORM1 (11744905_x_at) / Fold change /veh ORM1 (11744905_x_at) / RFU CCDC152 (11743942_at) / Fold change /veh CCDC152 (11743942_at) / RFU ECM1 (11717891_a_at) / Fold change /veh ECM1 (11717891_a_at) / RFU IL23R (11748794_a_at) / Fold change /veh IL23R (11748794_a_at) / RFU TNFAIP8L3 (11732012_x_at) / Fold change /veh TNFAIP8L3 (11732012_x_at) / RFU MBOAT4 (11741988_at) / Fold change /veh MBOAT4 (11741988_at) / RFU 11764193_at / Fold change /veh 11764193_at / RFU TMEM53 (11763286_at) / Fold change /veh TMEM53 (11763286_at) / RFU MAGEB2 (11727129_at) / Fold change /veh MAGEB2 (11727129_at) / RFU TMEM200A (11744735_a_at) / Fold change /veh TMEM200A (11744735_a_at) / RFU CCDC152 (11751479_a_at) / Fold change /veh CCDC152 (11751479_a_at) / RFU FAM211A (11726209_a_at) / Fold change /veh FAM211A (11726209_a_at) / RFU RGS16 (11746705_a_at) / Fold change /veh RGS16 (11746705_a_at) / RFU VCAN (11755009_s_at) / Fold change /veh VCAN (11755009_s_at) / RFU RHOB (11743442_s_at) / Fold change /veh RHOB (11743442_s_at) / RFU RGS16 (11720943_a_at) / Fold change /veh RGS16 (11720943_a_at) / RFU RGS16 (11720944_at) / Fold change /veh RGS16 (11720944_at) / RFU, VPS4B / Fold change vs veh, VPS4B / RFU, CREB1 / Fold change vs veh, CREB1 / RFU, DNAJC13 / Fold change vs veh, DNAJC13 / RFU, GNAQ / Fold change vs veh, GNAQ / RFU, CDK5R1 / Fold change vs veh, CDK5R1 / RFU, ZRANB3 / Fold change vs veh, ZRANB3 / RFU, CUL4A / Fold change vs veh, CUL4A / RFU, CCNY / Fold change vs veh, CCNY / RFU, UFL1 / Fold change vs veh, UFL1 / RFU, COG3 / Fold change vs veh, COG3 / RFU, DIAPH2 / Fold change vs veh, DIAPH2 / RFU, SKA2 / Fold change vs veh, SKA2 / RFU, AFF3 / Fold change vs veh, AFF3 / RFU, LMF1 / Fold change vs veh, LMF1 / RFU, IPO11 / Fold change vs veh, IPO11 / RFU, DFFB / Fold change vs veh, DFFB / RFU, FOXP1 / Fold change vs veh, FOXP1 / RFU, CARD8 / Fold change vs veh, CARD8 / RFU, STRN3 / Fold change vs veh, STRN3 / RFU, ADK / Fold change vs veh, ADK / RFU, RASSF2 / Fold change vs veh, RASSF2 / RFU, WIPF1 / Fold change vs veh, WIPF1 / RFU, LARP1B / Fold change vs veh, LARP1B / RFU, RASA1 / Fold change vs veh, RASA1 / RFU, RB1 / Fold change vs veh, RB1 / RFU, PPFIA1 / Fold change vs veh, PPFIA1 / RFU, MAT2A / Fold change vs veh, MAT2A / RFU, CCT5 / Fold change vs veh, CCT5 / RFU, WDR92 / Fold change vs veh, WDR92 / RFU, CUX1 / Fold change vs veh, CUX1 / RFU, TTC7A / Fold change vs veh, TTC7A / RFU, TMEM135 / Fold change vs veh, TMEM135 / RFU, DEPTOR / Fold change vs veh, DEPTOR / RFU, CPM / Fold change vs veh, CPM / RFU, DNAJB6 / Fold change vs veh, DNAJB6 / RFU, CACNA2D3 / Fold change vs veh, CACNA2D3 / RFU, DTX4 / Fold change vs veh, DTX4 / RFU, TFCP2 / Fold change vs veh, TFCP2 / RFU, GMCL1 /// GMCL1P1 / Fold change vs veh, GMCL1 /// GMCL1P1 / RFU, AEBP2 / Fold change vs veh, AEBP2 / RFU, SNHG1 /// SNORD22 /// SNORD25 /// SNORD26 /// SNORD27 /// SNORD28 /// SNORD29 /// SNORD31 / Fold change vs veh, SNHG1 /// SNORD22 /// SNORD25 /// SNORD26 /// SNORD27 /// SNORD28 /// SNORD29 /// SNORD31 / Fold change (Aza/veh), C12orf56 (ProbeSet 11735607_a_at) / Fold change (ACY-1035/veh), C12orf56 (ProbeSet 11735607_a_at) / Fold change (Aza/veh), FGFR1OP (ProbeSet 11751329_s_at) / Fold change (ACY-1035/veh), FGFR1OP (ProbeSet 11751329_s_at) / Fold change (Aza/veh), VPS36 (ProbeSet 11739960_a_at) / Fold change (ACY-1035/veh), VPS36 (ProbeSet 11739960_a_at) / RFU SYPL1 (11715823_x_at) / Fold change /veh SYPL1 (11715823_x_at) / RFU IGFBP7 (11715501_s_at) / Fold change /veh IGFBP7 (11715501_s_at) / RFU REEP3 (11722064_at) / Fold change /veh REEP3 (11722064_at) / RFU IGLL1 (11728026_x_at) / Fold change /veh IGLL1 (11728026_x_at): dose or concentration left out as unconfirmed
Settings: MV-4-11 cells, 48 hours

## Nc1ncn([C@@H]2O[C@H](CO)[C@@H](O)[C@H]2O)c(=O)n1 [azacitidine]
  Fold change /veh 11762660_at: 1.27

Source: publication PMC5218480 (PLoS ONE, 2017)
